Experimental data as given in patent publication US9650339B2, “Inhibitors of histone demethylases” (Gilead Sciences, Inc., priority 2013, dated 2017).

What was measured:
[1] = target: T1, KDM3B (JMJD1B) (Homo sapiens, UniProt Q7LBC6); test: Histone lysine demethylase AlphaLISA assay, KDM3B; type: biochemical; settings: read-out: KDM3B HDME Inhibition IC50
T1 construct: 842-1761; host or cells: Bac (baculovirus system)
T1 sequence (Q7LBC6 842-1761): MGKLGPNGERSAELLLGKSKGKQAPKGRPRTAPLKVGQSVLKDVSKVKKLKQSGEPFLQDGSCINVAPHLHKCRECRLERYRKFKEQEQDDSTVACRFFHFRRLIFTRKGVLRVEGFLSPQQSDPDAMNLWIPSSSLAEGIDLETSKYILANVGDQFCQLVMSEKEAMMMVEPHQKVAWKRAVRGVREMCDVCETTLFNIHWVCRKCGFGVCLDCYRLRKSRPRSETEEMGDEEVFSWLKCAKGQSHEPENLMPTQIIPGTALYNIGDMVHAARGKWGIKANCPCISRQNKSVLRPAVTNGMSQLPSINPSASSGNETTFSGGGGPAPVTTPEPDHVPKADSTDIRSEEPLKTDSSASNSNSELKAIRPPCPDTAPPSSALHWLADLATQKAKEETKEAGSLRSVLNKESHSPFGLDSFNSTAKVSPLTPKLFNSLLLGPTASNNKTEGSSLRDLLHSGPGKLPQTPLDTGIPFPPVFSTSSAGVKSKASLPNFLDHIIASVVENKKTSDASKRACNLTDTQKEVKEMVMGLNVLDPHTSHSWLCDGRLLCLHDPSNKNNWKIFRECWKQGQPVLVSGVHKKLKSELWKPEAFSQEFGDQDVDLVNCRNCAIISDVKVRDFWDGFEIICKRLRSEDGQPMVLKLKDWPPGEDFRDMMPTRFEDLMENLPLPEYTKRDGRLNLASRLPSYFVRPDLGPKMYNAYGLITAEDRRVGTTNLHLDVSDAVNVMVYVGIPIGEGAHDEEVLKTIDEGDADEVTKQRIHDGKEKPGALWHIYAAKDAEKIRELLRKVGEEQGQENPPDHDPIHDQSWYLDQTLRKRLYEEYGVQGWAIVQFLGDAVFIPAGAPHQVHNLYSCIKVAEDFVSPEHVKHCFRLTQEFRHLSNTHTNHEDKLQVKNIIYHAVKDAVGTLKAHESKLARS
Protocol: Assays are performed analogously to the protocol described by PerkinElmer (Roy et al. PerkinElmer Technical Note: AlphaLISA #12, April 2011)
Enzymes are dissolved in enzyme buffer and incubated for 10 min before being added to 3% DMSO solutions of compounds in enzyme buffer. Incubated for another 10 minutes, before substrate solution is added and the reaction mixture is incubated at room temperature. 10 μL acceptor beads, suspended in Epigenetic Buffer (Perkin Elmer AL008) from stock, are added and the suspension is incubated in the dark at room temperature, before a suspension of streptavidin donor beads (Perkin Elmer 6760002) in Epigenetic Buffer is added. After incubation at room temperature in the dark the plates are read. […]
BK9M2: Biotin-ARTKQTAR(KMe2)STGGKAPRKQ-NH2 (AnaSpec 64359) […]
Substrate Solution: Substrate, 25 μM L-Asc, and 10 μM α-KG in Buffer A.

[2] = target: T2, KDM4C (Homo sapiens, UniProt Q9H3R0); test: Histone lysine demethylase immunofluorescence assay, U2OS cells transfected with KDM4C; type: cell-based; settings: U2OS cells transfected with pCMVHA KDM4C; mark detected H3K9me3; 20 hours
T2 construct: Full length; host or cells: U2OS
T2 sequence (Q9H3R0 1-1056): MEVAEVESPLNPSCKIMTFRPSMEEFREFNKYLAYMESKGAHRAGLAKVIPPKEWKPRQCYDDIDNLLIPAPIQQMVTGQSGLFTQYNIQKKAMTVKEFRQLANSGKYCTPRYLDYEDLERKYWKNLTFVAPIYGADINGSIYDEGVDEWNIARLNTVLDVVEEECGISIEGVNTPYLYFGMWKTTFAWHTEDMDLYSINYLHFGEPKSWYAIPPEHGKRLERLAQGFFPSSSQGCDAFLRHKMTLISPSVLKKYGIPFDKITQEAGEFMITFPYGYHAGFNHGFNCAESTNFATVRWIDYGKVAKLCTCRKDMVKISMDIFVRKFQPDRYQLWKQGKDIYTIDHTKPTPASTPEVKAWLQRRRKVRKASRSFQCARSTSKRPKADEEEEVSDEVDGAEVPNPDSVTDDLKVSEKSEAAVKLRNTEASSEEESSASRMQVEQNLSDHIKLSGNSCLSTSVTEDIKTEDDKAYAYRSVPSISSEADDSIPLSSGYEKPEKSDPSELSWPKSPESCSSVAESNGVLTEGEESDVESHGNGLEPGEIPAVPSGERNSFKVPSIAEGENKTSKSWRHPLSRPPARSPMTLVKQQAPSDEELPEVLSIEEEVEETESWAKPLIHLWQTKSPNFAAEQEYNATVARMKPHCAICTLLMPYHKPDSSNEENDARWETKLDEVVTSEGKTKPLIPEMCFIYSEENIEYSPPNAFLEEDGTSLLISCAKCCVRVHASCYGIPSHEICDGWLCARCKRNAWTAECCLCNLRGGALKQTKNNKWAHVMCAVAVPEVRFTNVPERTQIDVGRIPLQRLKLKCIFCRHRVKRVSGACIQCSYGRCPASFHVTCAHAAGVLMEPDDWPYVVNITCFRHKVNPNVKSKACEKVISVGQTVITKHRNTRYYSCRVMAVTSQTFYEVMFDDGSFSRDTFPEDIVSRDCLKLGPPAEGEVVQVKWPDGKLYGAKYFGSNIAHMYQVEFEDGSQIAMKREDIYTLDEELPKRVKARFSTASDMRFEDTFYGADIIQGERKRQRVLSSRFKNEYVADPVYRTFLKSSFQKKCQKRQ
Protocol: U2OS cells were seeded 24 hours before transfection. Transfection was performed with Fugene HD transfection reagent as recommended by the manufacturer. 6 hours after transfection, the cells were harvested and seeded into multi well plates into media containing compound. The media used was DMEM containing 10% FBS and pen/strep. 20 hours after incubation of cells with compounds, the cells were washed in PBS, harvested by fixation with formaldehyde 4% aqueous solution, and washed in PBS. Subsequently, the cells were permeabilized in PBS with 0.2% Triton X-100 for. Blocking was performed in PBS with 0.2% Triton X-100 and 5% FBS. The cells were incubated with primary antibodies in blocking solution over night at 4° C. The primary antibodies used in the assays were HA.11 (Covance, MMS-101P) and the antibody detecting the mark specified in the table below. After incubation with primary antibodies, the cells were washed with PBS, incubated with secondary antibodies (Alexa fluor 594 goat anti rabbit IgG, Invitrogen, A11012; Alexa flour 488 donkey anti mouse IgG, Invitrogen, A21202) and Hoechst, (Sigma, 33342) in blocking solution, and washed again with PBS. Finally, PBS was added and high throughput imaging and analysis were performed by an IN Cell Analyzer 1000 (GE Healthcare). The robot software analyzed individual cells and divided these into HA+ (transfected cells) and HA− (non-transfected cells). The IC50 values were based on an average measure of the staining of the mark specified in the table below in the transfected cells.

SMILES | IC50 [1] [µM] | IC50 [2] [µM]
CCCNCc1cc(CNC2CC2)ccn1 [Compound 12, N-({2-[(propylamino)methyl]-pyridin-4-yl}methyl)-cyclopropanamine] | > 2.5 | > 2.5
CN(C)C(=O)CNCc1cc(CNCC#N)ccn1 [Compound 13, 2-{[(4-{[(cyanomethyl)amino]-methyl}pyridin-2-yl)methyl]amino}-N,N-dimethylacetamide] | > 2.5 | 0.25 to 2.5
CN(C)C(=O)CNCc1cc(CNCCF)ccn1 [Compound 14, 2-{[(4-{[(2-fluoroethyl)amino]-methyl}pyridin-2-yl)methyl]amino}-N,N-dimethylacetamide] | > 2.5 | > 2.5
CN(C)CCNCc1ccnc(CNCC(=O)N(C)C)c1 [Compound 15, 2-({[4-({[2-(dimethylamino)ethyl]-amino}methyl)pyridin-2-yl]methyl}amino)-N,N-dimethylacetamide] | > 2.5 | > 2.5
CNCc1ccnc(CNCCCN(C)Cc2ccccc2)c1 [Compound 17, benzyl(methyl){3-[({4-[(methylamino)methyl]-pyridin-2-yl)methyl)-amino]propyl}-amine] | > 2.5 | > 2.5
CN(C)CCNCc1cc(CNC(C#N)C2CC2)ccn1 (stereo not drawn) [Compound 21, 2-cyclopropyl-2-({[2-({[2-(dimethylamino)ethyl]-amino}methyl)pyridin-4-yl]methyl}amino)-acetonitrile] | > 2.5 | > 2.5
CC(C#N)NCc1ccnc(CNCCCN(C)C)c1 (stereo not drawn) [Compound 22, 2-({[2-({[3-(dimethylamino)propyl]-amino}methyl)pyridin-4-yl]methyl}amino)-propanenitrile] | > 2.5 | > 2.5
N#CCNCc1ccnc(CNCCCCN(Cc2ccccc2)C2CC2)c1 [Compound 23, 2-[({2-[({4-[benzyl(cyclopropyl)-amino]butyl}amino)-methyl]pyridin-4-yl}methyl)amino]-acetonitrile] | > 2.5 | > 2.5
CNC(C#N)c1ccnc(CNCCCN(C)C)c1 (stereo not drawn) [Compound 24, 2-[2-({[3-(dimethylamino)propyl]-amino}methyl)pyridin-4-yl]-2-(methylamino)-acetonitrile] | > 2.5 | > 2.5
CN(C)C(=O)CNCc1cc(/C=N\C2CC2)ccn1 [Compound 33] | > 2.5 | 0.25 to 2.5
CN(C)C(=O)CNCc1cc(/C=N/CCCc2ccccc2)ccn1 [Compound 34, N,N-dimethyl-2-[({4-[[(3-phenylpropyl)imino]-methyl]pyridin-2-yl}methyl)amino]-acetamide] | > 2.5 | > 2.5

More lines, now with the values ahead:

IC50 [1] [µM] | IC50 [2] [µM] | SMILES
> 2.5 | 0.25 to 2.5 | CC1CC1/N=C/c1ccnc(CNCC(=O)N(C)C)c1 (stereo not drawn) [Compound 35, N,N-dimethyl-2-[({4-[N-(2-methylcyclopropyl)-carboximidoyl]pyridin-2-yl}methyl)amino]-acetamide]
> 2.5 | > 2.5 | CN(C)C(=O)CNCc1cc(/C=N/CCC2CCCCC2)ccn1 [Compound 36, 2-[({4-[[(2-cyclohexylethyl)imino]-methyl]pyridin-2-yl}methyl)amino]-N,N-dimethylacetamide]
> 2.5 | 0.25 to 2.5 | CN(C)CCC/N=C/c1ccnc(CNCCCN(C)C)c1 [Compound 37, [3-(dimethylamino)propyl]-({4-[{[3-(dimethylamino)propyl]-imino}methyl]pyridin-2-yl}methyl)amine]
> 2.5 | > 2.5 | CN(C)CCCNCc1cc(/C=N/CCN(C)C)ccn1 [Compound 38, ({4-[{[2-(dimethylamino)ethyl]-imino}methyl]pyridin-2-yl}methyl)[3-(dimethylamino)-propyl]amine]
> 2.5 | > 2.5 | CCSCCNCc1cc(/C=N/C2CC2)ccn1 [Compound 39, N-{[2-({[2-(ethylsulfanyl)-ethyl]amino}methyl)pyridin-4-yl]methylidene}-cyclopropanamine]
> 2.5 | 0.25 to 2.5 | CN1CCCC1CCNCc1cc(/C=N/C2CC2)ccn1 (stereo not drawn) [Compound 40, N-{[2-({[2-(l-methylpyrrolidin-2-yl)ethyl]amino}methyl)-pyridin-4-yl]methylidene}-cyclopropanamine]
> 2.5 | 0.25 to 2.5 | CN(CCCNCc1cc(/C=N/C2CC2)ccn1)Cc1ccccc1 [Compound 41, N-({2-[({3-[benzyl(methyl)amino]-propyl}amino)methyl]-pyridin-4-yl}methylidene)-cyclopropanamine]
> 2.5 | 0.25 to 2.5 | C(=N/C1CC1)/c1ccnc(CNCCCN2CCCC2)c1 [Compound 42, N-{[2-({[3-(pyrrolidin-1-yl)propyl]amino}-methyl)pyridin-4-yl]methylidene}-cyclopropanamine]
> 2.5 | 0.25 to 2.5 | CN(C)C/C=C/CNCc1cc(/C=N/C2CC2)ccn1 [Compound 43, N-{[2-({[(2E)-4-(dimethylamino)but-2-en-1-yl]amino}-methyl)pyridin-4-yl]methylidene}-cyclopropanamine]
> 2.5 | 0.25 to 2.5 | CN(C)CCCCNCc1cc(/C=N\C2CC2)ccn1 [Compound 45, N-{[2-({[4-(dimethylamino)butyl]-amino}methyl)-pyridin-4-yl]methylidene}-cyclopropanamine]
